Test [1] relates to Gas6 ligand induced AKT phosphorylation. In words: Gas6 ligand induced AKT phosphorylation, western blotting in H1299 NSCLC cells. In kind it is cell-based. The following applies: Homo sapiens, NCI-H1299, at 100 nM treatment, 100 ng/mL Gas6, read-out: inhibition activity against Gas6 ligand induced AKT phosphorylation. (Immunoblotting shows a protein as a band on a membrane.)
Test [2] has as its target Mer kinase (Homo sapiens (Human), UniProt Q12866). In words: Mer kinase assay (AlphaScreen). The following applies: read-out: Mer kinase IC50; activity level class. In general terms: In Alpha technology, singlet oxygen from a donor bead excites a nearby acceptor bead.
The target of test [3] is Met kinase (Homo sapiens, UniProt P08581). In words: Met kinase assay (AlphaScreen). The format is biochemical.
For test [4], the target named is Axl kinase (Homo sapiens (Human), UniProt P30530). In words: Axl kinase assay (AlphaScreen). In kind it is biochemical. The following applies: activity level class.
Setting [5] is: activity level class, read-out: Met kinase IC50.

These results are taken from patent publication US11407757B2, “Heterocycle compounds as Tyro3, Axl and MerTK (TAM) family of receptor tyrosine kinase inhibitors” (Development Center for Biotechnology, priority 2017, dated 2022).

Usually inhibition stands for the percentage by which the read-out fell short of the control. A word on the pIC50: it is −log10 of the IC50, conventionally taken in molar units.

pIC50: −log10 of the molar value. Like-named read-outs stand apart in the source and are kept apart here.

As to `Cc1nc2ccc(-c3c[nH]c4nc(Nc5ccc(CN6CCN(C)CC6)cc5)nc(OCC5CCCO5)c34)cc2o1` (stereo not shown) [Compound 67, 5-(2-methylbenzo[d]oxazol-6-yl)-N-(4-((4-methylpiperazin-1-yl)methyl)phenyl)-4-((tetrahydrofuran-2-yl)methoxy)-7H-pyrrolo [2,3-d]pyrimidin-2-amine], in test [1], the inhibition at 0.1 µM was > 50%. Also, the negative-log IC50 (pIC50) in test [2] was < 6.00; in test [3] (setting [5]), < 6.00; in test [4] it was > 7.52.

Consider `COCCOc1nc(Nc2ccc(CN3CCN(C)CC3)cc2)nc2[nH]cc(-c3ccc(NC(=O)c4cc(C)n(C)n4)cc3)c12` [Compound 76, N-(4-(4-(2-methoxyethoxy)-2-((4-((4-methylpiperazin-1-yl)methyl)phenyl)amino)-7H-pyrrolo[2,3-d]pyrimidin-5-yl)phenyl)-1,5-dimethyl-7H-pyrazole-3-carboxamide], for which the inhibition at 0.1 µM in test [1] was > 50%. In addition, the negative logarithm of the IC50 (pIC50) in test [2] is < 6.00; in test [3] (setting [5]), < 6.00; in test [4], > 7.52.

For the compound `COCCOc1nc(Nc2ccc(CN3CCN(C)CC3)cc2)nc2[nH]cc(-c3ccc(OCc4ccncc4)cc3F)c12` [Compound 93, 5-(2-fluoro-4-(pyridin-4-ylmethoxy)phenyl)-4-(2-methoxyethoxy)-N-(4-((4-methylpiperazin-1-yl)methyl)phenyl)-7H-pyrrolo[2,3-d]pyrimidin-2-amine], in test [1], the inhibition at 0.1 µM is > 50%. The pIC50 in test [2] was < 6.00; in test [3] (setting [5]), < 6.00; in test [4], > 7.52.

Turning to `COCCOc1nc(Nc2ccc(CN3CCN(C)CC3)cc2)nc2[nH]cc(-c3ccc(OCc4cncc(OC)c4)cc3F)c12` [Compound 100, 5-(2-fluoro-4-((5-methoxypyridin-3-yl)methoxy)phenyl)-4-(2-methoxyethoxy)-N-(4-((4-methylpiperazin-1-yl)methyl)phenyl)-7H-pyrrolo[2,3-d]pyrimidin-2-amine], the pIC50 was < 6.00 in test [2], < 6.00 in test [3] (setting [5]) and > 7.52 in test [4].

Turning to `COCCOc1nc(Nc2ccc(CN3CCC(C)CC3)cc2)nc2[nH]cc(-c3ccc(OCc4ccccn4)cc3F)c12` [Compound 109, 5-(2-fluoro-4-(pyridin-2-ylmethoxy)phenyl)-4-(2-methoxyethoxy)-N-(4-((4-methylpiperidin-1-yl)methyl)phenyl)-7H-pyrrolo[2,3-d]pyrimidin-2-amine], the inhibition at 0.1 µM in test [1] was > 50%. Further, the negative-log IC50 (pIC50) in test [2] is > 7.52; in test [3], 6.00 to 6.40; in test [4], > 7.52.
